Results taken from article PMC4735555, “Crystal structure of the N-myristoylated lipopeptide-bound MHC class I complex” (Nature Communications, 2016).

Columns and labels:
[1] = tested on: 2N5.1 TCR; assay: SPR binding of soluble 2N5.1 TCR to antigen-loaded Mamu-B*098; set-up: species or system rhesus macaque; details: in words; Biacore 3000, 30 °C; soluble 2N5.1 TCR αβ dimer; lipopeptide-loaded Mamu-B*098 immobilized; pH 7.5
Text: Single-chain MHC proteins in which β2m was linked via a Gly-Ser linker (GGGGSGGSGSGGGSS) to the ectodomain of either Mamu-B*098 or Mamu-A*02, followed by a biotinylation sequence peptide (LHHILDAQKMVWNHR), were also expressed in E. coli and were purified in a similar manner to the trimer complex of Mamu-B*098, β2m and C14nef5. The β2m-linked Mamu-B*098 protein was refolded without C14nef5, whereas the β2m-linked Mamu-A*02 protein was refolded in the presence of the YY9 peptide (YTSGPGIRY). These recombinant proteins (3 mg) were biotinylated by being incubated for 12 h at 20 °C with 2 μg of BirA enzyme (Sigma-Aldrich, St Louis, MO) in a biotinylation buffer containing 100 mM Tris-HCl pH 8.0, 5 mM MgCl2, 4.5 mM ATP and 4 mM D-biotin, and were purified by size-exclusion chromatography.
TCR dimers were generated by the disulfide-linked TCR method. […]
The binding of ligands to MHC class I molecules was analysed using the Octet RED96 system equipped with a streptavidin-conjugated biosensor (Pall ForteBio, Menlo Park, CA) according to the manufacturer's instructions. […] After reference subtraction, binding signals were analysed using the BIAevaluation 3.1 software. […]

[2] = tested on: 2N5.1 (LLC-MK2 cells transfected with other rhesus MHC class I genes); assay: Ag presentation by other (non-B*098) Mamu class I LLC-MK2 transfectants to 2N5.1; format: cell-based, rhesus macaque; details: LLC-MK2 transfected with each rhesus MHC class I cDNA clone, other than Mamu-B*098; IFN-γ; C14nef5
Method: (§1) Figure 1 Identification of Mamu-B*098 as a lipopeptide Ag-presenting molecule. (a) LLC-MK2 cells transfected with each of the rhesus MHC class I genes were tested for their ability to present C14nef5 to 2N5.1. […] PBMCs obtained from a donor with the potential to present C14nef5 to 2N5.1 were used as a positive control. Experiments were performed in triplicate. Mean values with s.e.m. are shown. (b) The binding of lipopeptide Ags to recombinant β2m-linked Mamu-B*098 and Mamu-A*02 proteins was monitored by biolayer interferometry. Representative data from three independent experiments are shown. Mamu-A*02, a rhesus MHC class I allele known to bind 9-mer peptides, was used as a negative control. (c) Plate-coated MHC class I molecules were tested for their ability to present lipopeptide Ags to 2N5.1. The Ag-specific T-cell response was assessed by measuring the amount of IFN-γ released into the culture medium. Mean values with s.e.m. are shown. […] The original data (coloured as indicated) are depicted with the curve fit (grey) overlaid. The steady-state affinity plot (inset) is also shown. Three independent experiments were performed and mean equilibrium-dissociation constant (KD) values ±s.d. are shown. (e) Amino acid sequences of Mamu-B*098, HLA-B*27:09, Mamu-B*17:01 and human CD1a are shown. […] Solid and open triangles indicate paired and unpaired cysteine residues, respectively. […]

[3] = tested on: 2N5.1 (Mamu-B*098-transfected LLC-MK2 cells as Ag-presenting cells); assay: Ag presentation by LLC-MK2 cells transfected with rhesus MHC class I (Mamu) cDNA to 2N5.1; format: cell-based, rhesus macaque; details: C14nef5 presented by LLC-MK2 expressing Mamu-B*098; in triplicate, mean with s.e.m. (graph)
Method: as §1

Substance: C14-Gly-Gly-Ala-Ile-Ser [C14nef5, N-myristoylated 5-mer peptide (C14-Gly-Gly-Ala-Ile-Ser; C14nef5) derived from the SIV Nef protein]
- interaction of 2N5.1 TCR with lipopeptide-loaded Mamu-B*098 (SPR) [1]: high-affinity interaction
- Ag presentation capacity of other Mamu class I transfectants [2]: None of the cell transfectants exhibited the Ag presentation capacity
- stimulation of 2N5.1 to produce IFN-γ by Mamu-B*098-transfected LLC-MK2 cells [3]: stimulated 2N5.1 cells to produce interferon-γ (IFN-γ)
